Assay results from US20100022531A1, “NOVEL COMPOUNDS AS P2X7 MODULATORS AND USES THEREOF” (RENOVIS, INC., priority 2005, published 2010).

molecular target: T1, P2X7 receptor (Homo sapiens, UniProt Q99572); experiment: Alternate method for IL-1β release assay (differentiated THP-1 cells, BzATP-stimulated, ELISA); type: cell-based; details: P2X7, read-out: IL-1β % inhib @ 0.3 μM
T1 construct: host or cells: THP-1 cells differentiated with LPS and IFN-γ
T1 sequence (Q99572 1-595): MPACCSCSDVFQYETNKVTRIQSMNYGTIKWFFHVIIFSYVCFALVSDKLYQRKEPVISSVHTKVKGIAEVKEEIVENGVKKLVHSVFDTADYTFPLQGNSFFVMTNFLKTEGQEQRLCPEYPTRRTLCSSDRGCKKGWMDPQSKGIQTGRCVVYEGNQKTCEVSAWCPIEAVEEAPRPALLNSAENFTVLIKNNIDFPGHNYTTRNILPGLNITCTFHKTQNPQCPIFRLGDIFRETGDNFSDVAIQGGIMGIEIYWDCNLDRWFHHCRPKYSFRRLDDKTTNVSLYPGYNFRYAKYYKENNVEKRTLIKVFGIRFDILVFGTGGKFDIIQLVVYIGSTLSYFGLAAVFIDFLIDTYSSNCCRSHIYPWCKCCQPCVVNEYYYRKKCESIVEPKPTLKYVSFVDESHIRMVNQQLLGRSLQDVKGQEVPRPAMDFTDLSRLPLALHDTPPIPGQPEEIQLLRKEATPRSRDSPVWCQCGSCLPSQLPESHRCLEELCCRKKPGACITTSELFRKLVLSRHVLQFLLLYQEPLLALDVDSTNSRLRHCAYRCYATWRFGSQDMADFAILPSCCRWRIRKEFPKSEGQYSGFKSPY
Method in brief: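 After 16 h differentiation with 100 ng/mL LPS and 100 ng/mL IFN-γ plus a further 2 h LPS priming, THP-1 cells were pretreated 30 min with compound, then stimulated with 250 uM BzATP (final) for 45 min. Supernatant IL-1β measured by ELISA; percent inhibition from background-adjusted levels versus untreated cells.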

| Compound | inhibition at 0.3 µM |
| --- | --- |
| O=C(CN1CCCCC1)N1CCc2c(ncnc2NCC23CC4CC(CC(C4)C2)C3)C1 [Compound 266] | 0 to 25% |

same assay, conditions: P2X7; 0.1 μM compound (plus symbols); read-out: IL-1β % inhib @ 0.1 μM

| inhibition at 0.1 µM | Compound |
| --- | --- |
| > 75% | O=C(c1ccccc1)N1CCc2c(ncnc2NCC23CC4CC(CC(C4)C2)C3)C1 [Compound 77, {4-[(Adamantan-1-ylmethyl)-amino]-5,8-dihydro-6H-pyrido[3,4-d]pyrimidin-7-yl}-phenyl-methanone] |
| > 75% | O=C(c1cccc(F)c1)N1CCc2c(ncnc2NCC23CC4CC(CC(C4)C2)C3)C1 [Compound 83] |
| 50 to 75% | O=S(=O)(c1ccc(Oc2ccccc2)cc1)N1CCc2c(ncnc2NCC23CC4CC(CC(C4)C2)C3)C1 [Compound 47] |
| > 75% | O=C(c1c(Cl)cccc1Cl)N1CCc2c(ncnc2NCC23CC4CC(CC(C4)C2)C3)C1 [Compound 75] |

same assay, conditions: P2X7; 0.1 μM compound (symbols + to ++++); read-out: IL-1β % inhib @ 0.1 μM

| inhibition at 0.1 µM | Compound |
| --- | --- |
| > 75% | c1cc(CN2CCc3c(ncnc3NCC34CC5CC(CC(C5)C3)C4)C2)c2c(c1)OCO2 [Compound 207] |
| 0 to 25% | O=C(SCc1ccc(F)cc1)N1CCc2c(ncnc2NCC23CC4CC(CC(C4)C2)C3)C1 [Compound 335] |
| 25 to 50% | O=C(OCCSCc1ccccc1)N1CCc2c(ncnc2NCC23CC4CC(CC(C4)C2)C3)C1 [Compound 334] |
| 25 to 50% | N#Cc1cccc(C(=O)N2CCc3c(ncnc3NCC34CC5CC(CC(F)(C5)C3)C4)C2)c1 [Compound 333] |
| 0 to 25% | O=C(OCc1ccncc1)N1CCc2c(ncnc2NCC23CC4CC(CC(C4)C2)C3)C1 [Compound 343] |
| 25 to 50% | O=C(c1cccnc1)N1CCc2c(ncnc2NCC23CC4CC(CC(F)(C4)C2)C3)C1 [Compound 322] |
| 25 to 50% | O=C(SCc1c(F)cccc1Cl)N1CCc2c(ncnc2NCC23CC4CC(CC(C4)C2)C3)C1 [Compound 344] |
| > 75% | CC(C)[C@H](NC(=O)OC(C)(C)C)C(=O)N1CCc2c(ncnc2NCC23CC4CC(CC(C4)C2)C3)C1 [Compound 351] |
| 50 to 75% | CS(=O)(=O)c1ccc(COC(=O)N2CCc3c(ncnc3NCC34CC5CC(CC(C5)C3)C4)C2)cc1 [Compound 329] |
| 50 to 75% | Fc1ccc(CN2CCc3c(ncnc3NCC34CC5CC(CC(F)(C5)C3)C4)C2)c(F)c1 [Compound 323] |

same assay, conditions: P2X7; 0.3 μM compound (asterisk symbols); read-out: IL-1β % inhib @ 0.3 μM

| inhibition at 0.3 µM | Compound |
| --- | --- |
| > 75% | COc1cccc(CN2CCc3c(ncnc3NCC34CC5CC(CC(C5)C3)C4)C2)c1 [Compound 195] |
| 0 to 25% | O=S(=O)(Cc1cc(C(F)(F)F)cc(C(F)(F)F)c1)N1CCc2c(ncnc2NCC23CC4CC(CC(C4)C2)C3)C1 [Compound 38] |
| 50 to 75% | COc1cccc(S(=O)(=O)N2CCc3c(ncnc3NCC34CC5CC(CC(C5)C3)C4)C2)c1 [Compound 21] |
| > 75% | Cc1cc(C(=O)N2CCc3c(ncnc3NCC34CC5CC(CC(C5)C3)C4)C2)c(C)o1 [Compound 146] |
| > 75% | O=S(=O)(Cc1ccccc1)N1CCc2c(ncnc2NCC23CC4CC(CC(C4)C2)C3)C1 [Compound 14] |
| 50 to 75% | O=C(c1ccc2ccccc2c1)N1CCc2c(ncnc2NCC23CC4CC(CC(C4)C2)C3)C1 [Compound 143] |
| 25 to 50% | N#Cc1ccc(S(=O)(=O)N2CCc3c(ncnc3NCC34CC5CC(CC(C5)C3)C4)C2)cc1 [Compound 25] |
| 0 to 25% | O=C(c1ccccc1Cl)N1CCc2c(ncnc2NCC23CC4CC(CC(C4)C2)C3)C1 [Compound 147] |
| > 75% | O=S(=O)(c1cccc2cccnc12)N1CCc2c(ncnc2NCC23CC4CC(CC(C4)C2)C3)C1 [Compound 7] |
| 25 to 50% | O=S(=O)(c1ccc(Cl)cc1F)N1CCc2c(ncnc2NCC23CC4CC(CC(C4)C2)C3)C1 [Compound 59] |
| > 75% | CCC(CC)CN1CCc2c(ncnc2NCC23CC4CC(CC(C4)C2)C3)C1 [Compound 192] |
| 0 to 25% | O=S(=O)(Cc1ccc(Cl)c(Cl)c1)N1CCc2c(ncnc2NCC23CC4CC(CC(C4)C2)C3)C1 [Compound 41] |
| 50 to 75% | COc1ccc(S(=O)(=O)N2CCc3c(ncnc3NCC34CC5CC(CC(C5)C3)C4)C2)c(OC)c1 [Compound 53] |
| 0 to 25% | CCCCN1CCc2c(ncnc2NCC23CC4CC(CC(C4)C2)C3)C1 [Compound 189] |
| > 75% | O=S(=O)(c1c(F)cccc1F)N1CCc2c(ncnc2NCC23CC4CC(CC(C4)C2)C3)C1 [Compound 63] |
| > 75% | Cc1nn(-c2ccccc2)nc1C(=O)N1CCc2c(ncnc2NCC23CC4CC(CC(C4)C2)C3)C1 [Compound 128] |
| 25 to 50% | CS(=O)(=O)N1CCc2c(ncnc2NCC23CC4CC(CC(C4)C2)C3)C1 [Compound 3] |
| 0 to 25% | O=S(=O)(c1cccc(Oc2ccc(Cl)c(Cl)c2)c1)N1CCc2c(ncnc2NCC23CC4CC(CC(C4)C2)C3)C1 [Compound 34] |
| > 75% | COc1ccc(C(=O)N2CCc3c(ncnc3NCC34CC5CC(CC(C5)C3)C4)C2)cc1OC [Compound 159] |
| 25 to 50% | c1nc2c(c(NCC34CC5CC(CC(C5)C3)C4)n1)CCN(Cc1ccc3c(c1)OCO3)C2 [Compound 175] |
| 25 to 50% | O=S(=O)(Cc1cc(Cl)cc(Cl)c1)N1CCc2c(ncnc2NCC23CC4CC(CC(C4)C2)C3)C1 [Compound 42] |
| > 75% | c1ccc(C(CN2CCc3c(ncnc3NCC34CC5CC(CC(C5)C3)C4)C2)c2ccccc2)cc1 [Compound 164] |

same assay, conditions: P2X7; 0.3 μM compound (symbols * to ****); read-out: IL-1β % inhib @ 0.3 μM

| Compound | inhibition at 0.3 µM |
| --- | --- |
| Brc1cc2c(cc1CN1CCc3c(ncnc3NCC34CC5CC(CC(C5)C3)C4)C1)OCO2 [Compound 198] | 0 to 25% |
| COc1cc(CN2CCc3c(ncnc3NCC34CC5CC(CC(C5)C3)C4)C2)ccc1OCc1ccccc1 [Compound 199] | 0 to 25% |
| Clc1cc2c(cc1CN1CCc3c(ncnc3NCC34CC5CC(CC(C5)C3)C4)C1)OCO2 [Compound 210] | 0 to 25% |
| FC(F)(F)Oc1ccc(CN2CCc3c(ncnc3NCC34CC5CC(CC(C5)C3)C4)C2)cc1 [Compound 231] | 0 to 25% |
| COc1ccc(CN2CCc3c(ncnc3NCC34CC5CC(CC(C5)C3)C4)C2)cc1O [Compound 204] | 0 to 25% |
| c1cc(CN2CCc3c(ncnc3NCC34CC5CC(CC(C5)C3)C4)C2)ccn1 [Compound 221] | > 75% |
| FC1(F)Oc2ccc(CN3CCc4c(ncnc4NCC45CC6CC(CC(C6)C4)C5)C3)cc2O1 [Compound 238] | 0 to 25% |

The remaining lines, values ahead:

| inhibition at 0.3 µM | Compound |
| --- | --- |
| 0 to 25% | O=C(CN1CCN(c2ncccn2)CC1)N1CCc2c(ncnc2NCC2C3CC4CC(C3)CC2C4)C1 (stereo not drawn) [Compound 301] |
| 25 to 50% | CN(CC(=O)N1CCc2c(ncnc2NCC2C3CC4CC(C3)CC2C4)C1)Cc1cccc(Cl)c1 (stereo not drawn) [Compound 311] |
| > 75% | C[C@@H](c1ccccc1)N(C)CC(=O)N1CCc2c(ncnc2NCC2C3CC4CC(C3)CC2C4)C1 (stereo partly drawn) [Compound 315] |
| 0 to 25% | O=C(CN1CCN(CC(=O)N2CCc3c(ncnc3NCC34CC5CC(CC(C5)C3)C4)C2)CC1)N1CCOCC1 [Compound 267] |
| > 75% | COc1ccc(OC)c(CN2CCc3c(ncnc3NCC34CC5CC(CC(C5)C3)C4)C2)c1 [Compound 242] |
| 25 to 50% | O=C(CN1CCc2ccccc2C1)N1CCc2c(ncnc2NCC2C3CC4CC(C3)CC2C4)C1 (stereo not drawn) [Compound 274] |
| 0 to 25% | CN(C)CCCN(C)CC(=O)N1CCc2c(ncnc2NCC2C3CC4CC(C3)CC2C4)C1 (stereo not drawn) [Compound 276] |
| 25 to 50% | CN(CC(=O)N1CCc2c(ncnc2NCC2C3CC4CC(C3)CC2C4)C1)Cc1ccncc1 (stereo not drawn) [Compound 319] |
| 50 to 75% | CN(CCc1ccccn1)CC(=O)N1CCc2c(ncnc2NCC2C3CC4CC(C3)CC2C4)C1 (stereo not drawn) [Compound 279] |

same assay, conditions: P2X7; at 0.03 μM (asterisk symbols); read-out: IL-1β % inhib @ 0.3 μM or @ 0.03 μM

| inhibition at 0.03 µM | Compound |
| --- | --- |
| 0 to 25% | C[C@@H](NC(=O)OC(C)(C)C)C(=O)N1CCc2c(ncnc2NCC(O)C23CC4CC(CC(C4)C2)C3)C1 (stereo partly drawn) [Compound 710, {(R)-2-[4-(2-Adamantan-1-yl-2-hydroxy-ethylamino)-5,8-dihydro-6H-pyrido[3,4-d]pyrimidin-7-yl]-1-methyl-2-oxo-ethyl}-carbamic acid tert-butyl ester] |
